From patent publication US4912223A, “1,4-Dihydropyridines” (Nelson Research & Development Co., priority 1988, dated 1990)
Structures can show the parent of a compound that is named as a salt.

Experiments:
[1] = molecular target: T1, DHP Site of the Calcium Channel (Oryctolagus cuniculus, UniProt P07293); assay: Binding Assay for Drugs Acting at the DHP Site of the Calcium Channel (3H-nitrendipine displacement); settings: washed rabbit skeletal muscle membranes, 0.5×10^-9 M 3H-nitrendipine, 30 min, 25° C., pH 7.4
T1 construct: Washed rabbit skeletal muscle membranes (fraction 2-8X); from tissue; host or cells: rabbit skeletal muscle membranes (fraction 2-8X)
T1 sequence (P07293 1-1664 limits assumed): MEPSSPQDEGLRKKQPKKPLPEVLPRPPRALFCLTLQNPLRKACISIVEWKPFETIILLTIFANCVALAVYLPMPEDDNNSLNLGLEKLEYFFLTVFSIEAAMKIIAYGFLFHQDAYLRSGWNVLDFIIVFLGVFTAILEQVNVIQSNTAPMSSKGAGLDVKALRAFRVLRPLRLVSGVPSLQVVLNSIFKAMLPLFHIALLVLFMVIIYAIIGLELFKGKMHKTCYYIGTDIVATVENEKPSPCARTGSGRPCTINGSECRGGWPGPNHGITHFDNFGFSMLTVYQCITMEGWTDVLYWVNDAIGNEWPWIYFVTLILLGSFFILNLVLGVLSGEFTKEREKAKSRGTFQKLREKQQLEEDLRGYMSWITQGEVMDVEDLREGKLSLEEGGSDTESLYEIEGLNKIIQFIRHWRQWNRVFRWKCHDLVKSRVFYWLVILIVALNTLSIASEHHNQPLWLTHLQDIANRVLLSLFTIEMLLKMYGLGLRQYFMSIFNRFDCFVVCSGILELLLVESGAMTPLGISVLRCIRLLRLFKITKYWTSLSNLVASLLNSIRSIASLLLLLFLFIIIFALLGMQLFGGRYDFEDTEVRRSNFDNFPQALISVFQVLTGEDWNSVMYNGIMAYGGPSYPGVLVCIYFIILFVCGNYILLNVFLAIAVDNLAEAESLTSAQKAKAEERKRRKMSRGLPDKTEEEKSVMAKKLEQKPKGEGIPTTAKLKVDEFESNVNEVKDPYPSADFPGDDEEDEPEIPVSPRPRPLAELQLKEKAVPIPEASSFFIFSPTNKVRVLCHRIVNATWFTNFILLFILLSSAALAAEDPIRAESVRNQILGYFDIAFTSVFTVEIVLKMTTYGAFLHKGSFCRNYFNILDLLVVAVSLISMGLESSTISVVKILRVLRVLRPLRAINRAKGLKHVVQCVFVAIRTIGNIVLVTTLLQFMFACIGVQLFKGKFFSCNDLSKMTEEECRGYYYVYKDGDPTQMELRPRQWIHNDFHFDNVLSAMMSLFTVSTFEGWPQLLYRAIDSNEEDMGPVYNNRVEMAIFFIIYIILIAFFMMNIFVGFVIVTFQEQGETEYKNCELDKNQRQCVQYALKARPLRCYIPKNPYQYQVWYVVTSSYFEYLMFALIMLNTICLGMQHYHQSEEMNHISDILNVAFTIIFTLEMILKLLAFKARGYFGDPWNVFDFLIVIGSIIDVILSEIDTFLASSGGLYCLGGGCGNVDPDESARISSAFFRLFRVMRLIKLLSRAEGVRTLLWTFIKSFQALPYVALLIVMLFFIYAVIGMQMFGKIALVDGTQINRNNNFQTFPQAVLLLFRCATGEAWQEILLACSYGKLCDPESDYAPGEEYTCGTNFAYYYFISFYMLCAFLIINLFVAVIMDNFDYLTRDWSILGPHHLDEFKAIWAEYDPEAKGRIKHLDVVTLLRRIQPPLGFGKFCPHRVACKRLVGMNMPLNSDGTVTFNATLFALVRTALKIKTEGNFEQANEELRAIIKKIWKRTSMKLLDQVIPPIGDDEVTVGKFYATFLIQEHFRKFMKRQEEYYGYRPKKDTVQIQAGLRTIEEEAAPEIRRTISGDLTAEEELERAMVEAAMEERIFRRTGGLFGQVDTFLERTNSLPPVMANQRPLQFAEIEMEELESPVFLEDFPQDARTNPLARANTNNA
T1 sequence (P13806 27-960 partner limits assumed): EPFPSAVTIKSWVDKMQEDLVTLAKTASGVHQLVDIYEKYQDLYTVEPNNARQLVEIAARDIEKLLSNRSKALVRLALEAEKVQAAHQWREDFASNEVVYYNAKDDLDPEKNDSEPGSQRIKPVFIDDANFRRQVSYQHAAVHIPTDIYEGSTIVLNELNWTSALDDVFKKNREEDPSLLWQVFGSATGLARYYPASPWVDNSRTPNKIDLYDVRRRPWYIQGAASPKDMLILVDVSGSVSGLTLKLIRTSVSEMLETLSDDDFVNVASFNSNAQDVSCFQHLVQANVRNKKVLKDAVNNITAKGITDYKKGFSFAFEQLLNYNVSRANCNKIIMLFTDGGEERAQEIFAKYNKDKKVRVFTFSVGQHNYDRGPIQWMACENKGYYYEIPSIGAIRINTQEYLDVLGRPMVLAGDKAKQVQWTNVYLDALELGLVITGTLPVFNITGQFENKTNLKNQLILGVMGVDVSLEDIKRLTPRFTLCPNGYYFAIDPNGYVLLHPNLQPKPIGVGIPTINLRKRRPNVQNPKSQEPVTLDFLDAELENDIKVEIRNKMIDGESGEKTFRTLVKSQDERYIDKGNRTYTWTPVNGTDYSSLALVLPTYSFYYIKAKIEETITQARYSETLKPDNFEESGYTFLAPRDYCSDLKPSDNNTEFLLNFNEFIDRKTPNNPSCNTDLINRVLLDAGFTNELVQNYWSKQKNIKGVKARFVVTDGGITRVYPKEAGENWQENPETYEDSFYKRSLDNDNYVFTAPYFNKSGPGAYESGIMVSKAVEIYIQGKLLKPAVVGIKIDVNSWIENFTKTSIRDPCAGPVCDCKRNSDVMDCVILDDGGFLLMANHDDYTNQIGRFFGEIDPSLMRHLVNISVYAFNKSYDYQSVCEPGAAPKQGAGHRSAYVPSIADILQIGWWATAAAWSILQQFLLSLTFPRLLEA
T1 sequence (P13806 961-1106 partner limits assumed): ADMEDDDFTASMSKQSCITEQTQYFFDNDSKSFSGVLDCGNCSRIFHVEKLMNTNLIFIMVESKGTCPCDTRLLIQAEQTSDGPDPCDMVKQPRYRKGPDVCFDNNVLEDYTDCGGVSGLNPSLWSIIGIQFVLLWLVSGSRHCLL
T1 sequence (P19517 whole entry partner): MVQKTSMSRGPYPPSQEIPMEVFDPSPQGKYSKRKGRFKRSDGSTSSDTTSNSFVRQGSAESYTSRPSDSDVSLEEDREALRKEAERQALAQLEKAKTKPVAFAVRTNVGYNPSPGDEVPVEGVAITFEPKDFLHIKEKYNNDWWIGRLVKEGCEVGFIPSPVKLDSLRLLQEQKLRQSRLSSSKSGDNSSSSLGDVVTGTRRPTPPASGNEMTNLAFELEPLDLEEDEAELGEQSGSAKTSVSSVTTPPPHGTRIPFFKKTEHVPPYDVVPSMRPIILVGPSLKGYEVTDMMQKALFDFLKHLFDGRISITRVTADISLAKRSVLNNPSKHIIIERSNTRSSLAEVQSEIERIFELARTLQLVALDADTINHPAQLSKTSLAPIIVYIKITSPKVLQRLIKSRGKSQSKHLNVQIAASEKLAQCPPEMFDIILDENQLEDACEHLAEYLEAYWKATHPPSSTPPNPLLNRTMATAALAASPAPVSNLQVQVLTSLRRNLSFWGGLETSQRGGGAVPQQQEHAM
T1 sequence (P19518 whole entry partner): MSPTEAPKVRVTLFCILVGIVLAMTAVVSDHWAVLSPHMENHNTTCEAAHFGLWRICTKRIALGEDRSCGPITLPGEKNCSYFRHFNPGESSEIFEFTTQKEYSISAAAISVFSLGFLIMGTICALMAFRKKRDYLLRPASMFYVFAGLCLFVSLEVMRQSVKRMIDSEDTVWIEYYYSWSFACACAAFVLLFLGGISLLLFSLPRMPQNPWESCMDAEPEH
Experimental: The incubation tubes were rapidly chilled in ice and the contents filtered through Whatman GF/B filters on a Millipore manifold, and the filters were placed in scintillation counting vials with 8 ml of Cytoscint cocktail, disrupted mechanically by shaking for 30 minutes and counted.
Drugs which interact at the DHP site will reduce this specific binding in a dose-dependent manner. The assays for the compounds of this invention were made with logarithmically spaced concentrations, the data were plotted on a probit-concentration plot, and the IC50 read off. The KI of the drug was calculated by standard techniques.

[2] = system: Systolic arterial blood pressure; assay: Hypotensive Activity (oral), indirect tail cuff method in spontaneous hypertensive rats (SHR); assay type: in vivo, spontaneous hypertensive rates (SHR); settings: 10 mmol/Kg in polyethylene glycol
Experimental: Systolic arterial blood pressure was measured with the indirect tail cuff method in spontaneous hypertensive rates (SHR). The change in baseline pressure (170-210 mm Hg) was recorded at various time points following oral administration of 10 mmol/Kg of the test compound in polyethylene glycol.

[3] = Water solubility of salt (dissolution in aqueous NaOH, freeze-dried); assay type: physicochemical
Experimental: A suspension of 50 mg (0.099 mmol) of the product of Example 2C in 30 ml of water and 1.0 ml (0.099 ) of 0.1N NaOH was stirred at ambient temperature for 15 hours.
All material was dissolved at this time. The mixture was freeze-dried to give 50 mg (quantitative yield) of a foamy water soluble solid: m.p. 215°-220° C.
A suspension of 50 mg (0.076 mmol) of the product of Example 6 in 30 ml of water and 1.52 ml (0.152 mmol) of 0.1N NaOH was stirred at ambient temperature for 15 hours. The material was totally dissolved at this time. The mixture was freeze dried to give 50 mg (quantitative yield) of a foamy water-soluble solid: m.p. 225°-232° C.

Structure (SMILES) | Ki [1] [nM] | solubility in water (in words) [3] | Mean Change (Decrease) in Systolic Blood Pressure, 12 min after drug administration [2] [mm Hg] | Mean Change (Decrease) in Systolic Blood Pressure, 30 min after drug administration [2] [mm Hg] | Mean Change (Decrease) in Systolic Blood Pressure, 60 min after drug administration [2] [mm Hg] | Mean Change (Decrease) in Systolic Blood Pressure, 120 min after drug administration [2] [mm Hg] | Mean Change (Decrease) in Systolic Blood Pressure, 240 min after drug administration [2] [mm Hg] | Mean Change (Decrease) in Systolic Blood Pressure, 360 min after drug administration [2] [mm Hg]
CC1=C(C(=O)OCC2OC(=O)C3OC(C)(C)OC23)C(c2cccc([N+](=O)[O-])c2)C(C(=O)OCC2OC(=O)C3OC(C)(C)OC23)=C(C)N1 (stereo not drawn) [Example 6, 2,6-Dimethyl-3,5-di(carboriboxy-gamma-lactone dimethylketal)-4-(3-nitrophenyl)-1,4-dihydropyridine] | 93 |  |  |  |  |  |  | 
CC1=C(C(=O)OCC2COC(C)(C)O2)C(c2cccc([N+](=O)[O-])c2)C(C(=O)OCC2COC(C)(C)O2)=C(C)N1 (stereo not drawn) [Example 5, 2,6-Dimethyl-3,5-di-(2,2-dimethyl-1,3-dioxolan-4-carbomethoxy)-4-(3-nitrophenyl)-1,4-dihydropyridine] | 29 |  | 17 | 19 | 13 | 17 | 19 | 19
COC(=O)C1=C(C)NC(C)=C(C(=O)OCC(O)C2OC(C)(C)OC2C(=O)O)C1c1cccc([N+](=O)[O-])c1 (stereo not drawn) [Example 11, 2,6-Dimethyl-3-(carboribonic acid-gamma-lactone dimethylketal)(3-nitrophenyl)-5-(carbomethoxy)-1,4-dihydropyridine, sodium salt] |  | water soluble |  |  |  |  |  | 
COC(=O)C1=C(C)NC(C)=C(C(=O)OC)C1c1ccccc1[N+](=O)[O-] [Nifedipine, nifedipine, reference compound] |  |  | 6 | 36 | 20 | 11 |  | 
CC1=C(C(=O)OCC(O)C2OC(C)(C)OC2C(=O)O)C(c2cccc([N+](=O)[O-])c2)C(C(=O)OCC(O)C2OC(C)(C)OC2C(=O)O)=C(C)N1 (stereo not drawn) [Example 13, 2,6-Dimethyl-3,5-di-(carboribonic acid-gamma-lactone dimethylketal)-4-(3-nitrophenyl-1,4-dihydropyridine, disodium salt] |  | water-soluble |  |  |  |  |  | 
COC(=O)C1=C(C)NC(C)=C(C(=O)OCC(O)CO)C1c1cccc([N+](=O)[O-])c1 (stereo not drawn) [Example 4, 2,6-Dimethyl-5-carbomethoxy-4-(3-nitrophenyl)-3-(2,3 dihydroxycarbopropoxy)-1,4-dihydropyridine] | 140 |  | 13 | 16 | 18 | 12 | 6 | 4

The next lines start with results.

Ki [1] [nM] | solubility in water (in words) [3] | Structure (SMILES) | Mean Change (Decrease) in Systolic Blood Pressure, 12 min after drug administration [2] [mm Hg] | Mean Change (Decrease) in Systolic Blood Pressure, 30 min after drug administration [2] [mm Hg] | Mean Change (Decrease) in Systolic Blood Pressure, 60 min after drug administration [2] [mm Hg] | Mean Change (Decrease) in Systolic Blood Pressure, 120 min after drug administration [2] [mm Hg] | Mean Change (Decrease) in Systolic Blood Pressure, 240 min after drug administration [2] [mm Hg] | Mean Change (Decrease) in Systolic Blood Pressure, 360 min after drug administration [2] [mm Hg]
30 |  | COC(=O)C1=C(C)NC(C)=C(C(=O)OCC2OC(=O)C3OC(C)(C)OC23)C1c1cccc([N+](=O)[O-])c1 (stereo not drawn) [Example 2C, 2,6-Dimethyl-3-(carboriboxy-gamma-lactone dimethylketal)-4-(3-nitrophenyl)-5-carbomethoxy-1,4-dihydropyridine] | 40 | 37 | 31 | 29 | 22 | 20
2.3 |  | COC(=O)C1=C(C)NC(C)=C(C(=O)OCC2COC3(CCCC3)O2)C1c1cccc([N+](=O)[O-])c1 (stereo not drawn) [Example 4B, 2,6-Dimethyl-5-carbomethoxy-4-(3-nitrophenyl)-3-(1,4-dioxaspiro[4,4]non-2-yl-carbomethoxy)-1,4-dihydropyridine] |  |  |  | 17 | 23 | 27
4.5 |  | COC(=O)C1=C(C)NC(C)=C(C(=O)OCC2COC(C)(C)O2)C1c1cccc([N+](=O)[O-])c1 (stereo not drawn) [Example 1B, 2,6-Dimethyl-3-(2,2-dimethyl-1,3-dioxolan-4-carbomethoxy)-4-(3-nitrophenyl)-5-carbomethoxy-1,4 dihydropyridine] |  |  |  | 36 | 34 | 19
